# Reference: patent publication US8785430B2, “Compound that can inhibit UBC13-UEV interactions, pharmaceutical compositions and therapeutic uses” (Consejo Superior de Investigaciones Cientificas, priority 2006, dated 2014)
# Experiments:
# [1] = system: S. cerevisiae Δrev3 mutants; assay: Survival of S. cerevisiae Δrev3 mutants after ultraviolet radiation or MMS; type: cell-based, Saccharomyces cerevisiae; conditions: 100 μM; UV or 0.03% MMS
# Description: To determine if compounds Ia and Ib inhibit the function of Ubc13p-Mms2p, their capacity to mimic in S. cerevisiae the DNA repair phenotypes generated by the null mutation of ubc13 was evaluated. Thus, mutant strains in RAD6 or REV3 and the parent strain thereof (control) were used in viability assays after the exposure to ultraviolet radiation or MMS. The genotypes of the strains used are the following:
# 3) Strain Δrev3: MAT at his3Δ1 leu2Δ0 lys2Δ0 ura3Δ0 rev3::kanMX4
# Cells were inoculated in liquid cultures with YPD medium overnight at 30° C., until reaching the log phase of growth. For the treatments with ultraviolet radiation, aliquots of cells, grown in the presence or absence of 100 μM of compounds Ia or Ib were irradiated in a Stratalinker instrument (Stratagene) at the energies indicated in FIGS. 7 and 8. For the treatment with the mutagenic agent MMS, aliquots of cells grown or not in medium with 100 μM of compounds Ia or Ib were incubated, 0.03% MMS being added, with subsequent incubation for the times indicated in FIGS. 7 and 8. After either treatment, 500 cells were seeded in plates with YPD medium, counting the colonies after 2 days.
# PC-3 cells = assay: CyQuant cell count, sensitization to doxorubicin; type: cell-based, human; conditions: 100 μM of compound Ia
# Description: The addition of 100 μM of Ia reduced the IC50 of doxorubicin to 0.1 μM for PC-3 cells and the IC50 of etoposide to 0.04 μM for HeLa cells. Therefore, the treatment with 100 μM of compound Ia causes a sensitization to the cytotoxic effects of doxorubicin of 5 times (PC-3 cells) and a sensitization to the cytotoxic effects of etoposide of 30 times (HeLa cells).
# PC-3.Sluc cells tumors = assay: PC-3.Sluc tumor xenografts in Balb/c nu/nu mice, light emission (RLUs); type: in vivo
# Description: For the purpose of determining if Varubin has an in vivo antitumor activity, its effects in mice having tumors formed from PC-3 cells were analyzed. The experimental tumors were formed by means of the intramuscular inoculation of PC-3.Sluc cells. The latter are PC-3 prostate cells in which they have been integrated by means of transfecting plasmid pRC/CMV-luc, which expresses the firefly (Photinus pyralis) luciferase gene in mammalian cells q. The incubation of the PC-3.luc cells with D-luciferin, a luciferase substrate, produces light, which can be quantified in an absolute manner (number of photons) either by means of a luminometer or by means of detection with a CCD (charge-coupled device) camera. The latter process further allows representing in real time images of the location of the tumor cells in the inoculated animals, as well as the tumor size, since the intensity of the light (number of photons) emitted in the presence of luciferin is directly proportional to the number of PC-3.luc cells.
# For these studies, 24 male Balb/c nu/nu mice (Charles River Laboratories) of an age of 6 weeks were used. These animals were kept in a pathogen-free environment at all times, having been kept in the animal housing facility for 1 week after they were received, before the experimental handling. After being anesthetized by means of an intraperitoneal (i.p.) injection of a mixture at equal parts of 6 mg/Kg of droperidol (Roche, Basel, Switzerland) and 12 mg/Kg of midazolam (Rovi S.A, Madrid, Spain), intramuscular (i.m.) injections were performed both in the right leg and in the left leg of each animal of 1×10^6 PC-3.Sluc cells, suspended in 100 μL of fetal bovine serum-free culture medium. The development of tumors in the inoculation sites was allowed for 2 weeks, after which a first measurement of photons emitted was made and a first capture of images with an ORCA-2BT Imaging System instrument (Hammamatsu Photonics) provided with a C4742-98-LWG-MOD model CCD camera (cooled at −80° C.) was done at a resolution of 512×512 pixels. […] Four minutes later, photons were detected and quantified for 5 minutes in the instrument described above. […] The quantification and the analysis of photons were performed with the aid of the image analysis program WASABI (Hamamatsu Photonics). […] For the graphic representations, the quantitative data (RLUs) were standardized, for each tumor, in relation to the RLUs of day 0 of treatment.
# The 24 mice, having luminescent tumors in both legs, were included in 4 experimental groups: (1) Control group, in which an intravenous (i.v.) injection of 100 μL of phosphate buffered saline pH 7.4 (PBS) and 50 μL of intratumoral (i.t.) PBS was performed. […] The light emission of the tumors was analyzed throughout 56 days from the start of the treatment.
# HeLa cells = assay: CyQuant cell count, sensitization to etoposide; conditions: HeLa cells, 100 μM of compound Ia
smiles,measurement,setting,value
"NC(=O)CN(CCc1ccccn1)C(=O)C1CC(=O)N(CCc2ccc(F)cc2)CC(=O)N1CCc1ccc(F)cc1 (stereo not drawn) [Ia, N-aminocarbamoylmethyl-N-(2′-(2″pyridyl)ethyl)-1,4-bis[2′-(4″-fluorophenyl)ethyl]-3,7-dioxo-[1,4]diazepane-5-carboxamide]",sensitization of Δrev3 cells to UV radiation or exposure to MMS,[1],caused a higher sensitization of the cells
same,sensitization to the cytotoxic effects of doxorubicin,PC-3 cells,5 times
same,antitumor activity in tumors transplanted in nu/nu mice,"PC-3.Sluc cells tumors; 100 μM, intramuscular injection",shows antitumor activity
same,tumor growth (RLUs),"PC-3.Sluc cells tumors; Varubin alone, 100 μM in 50 μL of PBS, i.t./i.m., twice a week, 56 days",very limited growth
same,"tumor growth (RLUs), combined treatment","PC-3.Sluc cells tumors; doxorubicin i.v. 5 mg/Kg once a week plus Varubin 100 μM twice a week, 56 days",did not grow significantly
same,sensitization to the cytotoxic effects of etoposide,HeLa cells,30 times
